Data set [1] is described as follows: In vitro MTT cytotoxicity assay, A549. In kind it is cell-based, human. The settings on record: human, read-out: Percent (%) cell viability at 100 μM, A549 cells. On the procedure: (§1) In vitro cytotoxicity evaluation […]
(§2) with minor modifications, which will be detailed below.
(§3) To obtain information regarding the toxicity of our compounds, their impact on the viability of human cells was investigated. HepG2 and A549 cells (2 × 10^4 cells per well) were seeded in 96-well, flat-bottomed culture plates in 100 µL culture medium (DMEM containing 10% fetal calve serum, 1% penicillin-streptomycin). Twenty-four hours after seeding the cells, medium was removed and replaced by medium containing test compounds in a final DMSO concentration of 1%. Compounds were tested in duplicates at a single concentration in 1% DMSO/medium. Epirubicin and doxorubicin were used as positive controls in serial dilutions starting from 10 µM, and rifampicin was used as a negative control (at 100 µM). The living cell mass was determined 48 h after treatment with compounds by adding 0.1 volumes of 3-(4,5-dimethylthiazol-2-yl)-2,5-diphenyltetrazolium bromide (MTT) solution (5 mg/mL sterile PBS) (Sigma, St. Louis, MO) to the wells. After incubating the cells for 30 min at 37 °C (atmosphere containing 5% CO2), medium was removed and MTT crystals were dissolved in 75 µL of a solution containing 10% SDS and 0.5% acetic acid in DMSO. The optical density (OD) of the samples was determined photometrically at 570 nm in a PHERAstar Omega plate reader (BMG labtech, Ortenberg, Germany). To obtain percent viability for each sample, their ODs were related to those of DMSO controls. At least two independent measurements were performed for each compound. The calculation of IC50 was performed using the nonlinear regression function of GraphPad Prism 10 (GraphPad Software, San Diego, CA, USA). […]
(In general: Tetrazolium dyes change colour on reduction, which living cells bring about.)

In the next data set the test system is A549 cells. Briefly: In vitro MTT cytotoxicity assay, A549. In kind it is cell-based, human. To be noted: 48 h, 100 µM. On the procedure: as §1, §2, §3
For a further data set, the system named is S. pneumoniae ECF‐PanT. Briefly: Transport‐activity assay, radiolabeled pantothenate uptake into proteoliposomes. Format: biochemical, Streptococcus pneumoniae. The settings on record: 250 μM compound + 5 mM of Mg-ATP, relative to 5 mM Mg‐ATP alone. On the procedure: Based on the reported transport activity assay on L. delbrueckii (Swier et al., [2016]), for the first time, we adapted this assay to a pathogenic bacterium. To do so, we purified the ECF‐PanT transporter, reconstituted it into proteoliposomes, and carried out transport assays with radiolabeled pantothenate. Upon the addition of MgATP, the radiolabeled pantothenate is translocated across the membrane via an ATP‐dependent mechanism. MgATP at 5 mM served as a positive control, supplying the proteins with the energy needed to complete the transport cycle, while MgADP at 5 mM was used as a negative control. The uptake of the radiolabeled substrate into proteoliposomes was measured using a scintillation counter.
The assay was performed based on the published protocol (Swier et al., [2016]). The only modification was reconstitution of S. pneumoniae ECF‐PanT in a 1:125 (w/w) ratio of protein to E. coli polar lipids into large unilamellar vesicles and using radiolabeled pantothenate for uptake.

Another data set has as its system S. pneumoniae DSM‐20566. Briefly: Galleria mellonella infection model with S. pneumoniae. The settings on record: S. pneumoniae OD600 1.5, after 3 days. In kind it is in vivo. On the procedure: Next, we examined the antibacterial effect of the ECF inhibitors under in vivo conditions by using G. mellonella larvae. This model was adopted based on the work of Alhayek et al. ([2022]) and serves to assess the efficacy of ECF inhibitors against S. pneumoniae induced infection. Larvae were injected with the overnight culture of S. pneumoniae DSM‐20566, incubated for 3 days at 37°C and 5% CO2 without shaking, and survival rates were monitored daily for 3 days (Figure 4).
G. mellonella larvae were used as an in vivo infection model to test selected ECF inhibitors, following the methodology established by Alhayek et al. ([2022]). S. pneumoniae DSM‐20566 was cultured in Todd–Hewitt medium with 0.1% choline at 37°C with 5% CO2 until an OD600 of 1.5 or higher was reached. Larvae were infected by injecting 10 μL of the culture into the left proleg and incubated at 37°C, 5% CO2 for 72–96 h. Survival was monitored daily. Control groups received either PBS or no injection. […]. The larvae used in this study were purchased from VALOMOLIA Company (Strasbourg, France).

The subject of the next data set is Lactobacillus casei. In words: L. casei whole‐cell uptake assay. In kind it is cell-based. The settings on record: Lacticaseibacillus casei.
The next data set concerns HepG2 cells. In words: In vitro MTT cytotoxicity assay, HepG2. In kind it is cell-based, human. The settings on record: 48 h. On the procedure: as §1, §2, §3

Results on six compounds are retold here after paper PMC11521937, “Expression and characterization of pantothenate energy‐coupling factor transporters as an anti‐infective drug target” (Protein Science : A Publication of the Protein Society, 2024).

Read-outs that look alike come from different tables or passages of the source.

A word on the viability: it is a read-out of living cells in per cent, often relative to untreated cells. In the case of `O=C(O)c1cc(OCc2cccc3ccccc23)ccc1O` [Compound 1], the viability at 48 h, 100 µM in data set [1] was > 100%. Further, in the data set with A549 cells, the “Percent (%) cell viability at 100 μM, A549 cells” value is given as 111 ± 6%. For the same compound, the “Percentage inhibition of pantothenate uptake” value (from here on “Percentage inhibition”) in the data set on S. pneumoniae ECF‐PanT is reported as 81.8%.

Consider `O=C(O)c1cc(OCc2ccc(Br)c3ccccc23)ccc1O` [Compound 2], for which the “Percent (%) cell viability at 100 μM, A549 cells” value in the data set with A549 cells worked out at 124 ± 15%. Moreover, the “Percentage inhibition” value in the data set with S. pneumoniae ECF‐PanT is recorded as 117.2%. The larval survival result in the data set with S. pneumoniae DSM‐20566 (compound at 10 μM) and with S. pneumoniae DSM‐20566 (compound at 50 μM) was “up to 70%” in each case.

Regarding `CC(C)(C)OC(=O)Nc1ccc(OCc2cccc3ccccc23)cc1C(=O)O` [Compound 3], the viability at 48 h, 100 µM in data set [1] came out at 86 ± 11%. In the data set with S. pneumoniae ECF‐PanT, the “Percentage inhibition” value was found to be 80.7%. The larval survival with S. pneumoniae DSM‐20566 (compound at 10 μM) amounted to 60%; with S. pneumoniae DSM‐20566 (compound at 50 μM), 50%.

The term IC50 denotes the point on the concentration scale where inhibition reaches its midpoint. Low values mean higher potency, high ones lower potency. On to `O=C(O)c1cccc(NCc2ccc(-c3ccc(Cl)cc3)o2)c1` [Compound 4], for which the viability at 48 h, 100 µM in data set [1] (A549 cells) is 80 ± 10%. The “Percentage inhibition” value with S. pneumoniae ECF‐PanT is 95.2%. Further, the larval survival in the data set with S. pneumoniae DSM‐20566 (compound at 10 μM) came to 40%; in the data set with S. pneumoniae DSM‐20566 (compound at 50 μM), 60%. The compound further registered an IC50 in the data set with Lactobacillus casei of 321 ± 200 µM.

For the compound `O=C(O)c1cccc(NCc2ccc(-c3cccc(Cl)c3)o2)c1` [Compound 5], the viability at 48 h, 100 µM in data set [1] (A549 cells) was 102 ± 17%. Besides, in the data set with S. pneumoniae ECF‐PanT, the “Percentage inhibition” value was 90.6%. In addition, the “Percent (%) cell viability at 100 μM, HepG2 cells” value in the data set with HepG2 cells is given as “non‐toxic”. The IC50 in the data set with Lactobacillus casei is 247 ± 78 µM.

Regarding `O=C(O)c1cccc(NCc2ccc(-c3ccccc3Cl)o2)c1` [Compound 6], the viability at 48 h, 100 µM in data set [1] (A549 cells) is 103 ± 7%. For the same compound, in the data set on S. pneumoniae ECF‐PanT, the “Percentage inhibition” value is given as 61.9%. Further, the “Percent (%) cell viability at 100 μM, HepG2 cells” value in the data set on HepG2 cells is reported as “non‐toxic”. The compound also had an IC50 in the data set on Lactobacillus casei of 285 ± 293 µM.
